Measured values from PubChem BioAssay (NCI).
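Values below derive from 48-hour exposures of cells grown in 96-well plates, with endpoints linearly interpolated between the two concentrations bracketing the appropriate inhibition level. Abbreviation: GI50, concentration required for 50% inhibition of growth. TGI is the concentration that stops growth completely.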

Legend:
Experiment in all cases: NCI anticancer screen, dose series, 48 h
[1] = tested on: A549 NSCLC
[2] = tested on: HT29 colon
[3] = tested on: K-562 leukemia
[4] = tested on: KM12 colon
[5] = tested on: NCI-H226 lung
[6] = tested on: OVCAR-3 ovarian
[7] = tested on: SF-268 CNS
[8] = tested on: SK-MEL-5 melanoma
[9] = tested on: U251 CNS
[10] = tested on: UACC-62 melanoma

| SMILES | GI50 [1] | TGI [1] | GI50 [2] | TGI [2] | GI50 [3] | TGI [3] | GI50 [4] | TGI [4] | GI50 [5] | TGI [5] | GI50 [6] | TGI [6] | GI50 [7] | TGI [7] | GI50 [8] | TGI [8] | GI50 [9] | TGI [9] | GI50 [10] | TGI [10] |
| --- | --- | --- | --- | --- | --- | --- | --- | --- | --- | --- | --- | --- | --- | --- | --- | --- | --- | --- | --- | --- |
| COc1cc2c(cc1OCCCCn1c(-c3cccs3)nc3ccccc31)N=C[C@@H]1CCCN1C2=O | 3.22 µM | > 100 µM | 1.97 µM | 14.6 µM | 15.5 µM | > 100 µM | 1.92 µM | 5.38 µM | 2.13 µM | 6.51 µM | 1.72 µM | 4.29 µM | 1.8 µM | 5.48 µM | 1.09 µM | 2.3 µM | 1.77 µM | 10.1 µM | 1.57 µM | 3.08 µM |
| Cc1cc(C(O)(c2ccc(Nc3ccccc3)cc2)c2ccc(Nc3ccc(S(=O)(=O)O)cc3)cc2)ccc1N (stereo not given) | 1.55 µM | 3.25 µM | 0.516 µM | 2.34 µM | 0.911 µM | > 100 µM | 1.49 µM | 3.28 µM | 1.63 µM | 3.42 µM | 1.11 µM | 2.49 µM | 1.68 µM | 4.19 µM | 1.26 µM | 2.58 µM | 0.772 µM | 2.05 µM | 0.499 µM | 2.12 µM |
| O=C([O-])CCc1ccccc1.O=C([O-])CCc1ccccc1.O=C([O-])CCc1ccccc1.O=C([O-])CCc1ccccc1.[Mo+2].[Mo+2] | > 100 µM | > 100 µM | > 100 µM | > 100 µM | > 100 µM | > 100 µM | > 100 µM | > 100 µM | > 100 µM | > 100 µM | > 100 µM | > 100 µM | > 100 µM | > 100 µM | > 100 µM | > 100 µM | > 100 µM | > 100 µM | > 100 µM | > 100 µM |
| CCOc1cc(/C=C/C(=O)C(C(=O)/C=C/c2ccc(OC(=O)CNc3nnc(C)s3)c(OCC)c2)C(=O)CNc2nnc(C)s2)ccc1OC(=O)CNc1nnc(C)s1 | 2.36 µM | 7.44 µM | 0.515 µM | 1.85 µM | 0.352 µM | > 100 µM | 1.3 µM | 2.94 µM | 1.92 µM | 4.54 µM | 1.24 µM | 4.85 µM | 1.36 µM | 4.13 µM | 1.71 µM | 3.29 µM | 0.976 µM | 2.89 µM | 1.43 µM | 2.8 µM |
| CS(=N)(=O)CCC(N)P(=O)(O)O (stereo not given) |  | > 100 µM |  | > 100 µM |  | > 100 µM |  | > 100 µM |  | > 100 µM |  | > 100 µM |  | > 100 µM |  | > 100 µM |  | > 100 µM |  | > 100 µM |
| CC(=O)CC(=O)NC=O |  | > 100 µM |  | > 100 µM |  | > 100 µM |  | > 100 µM |  | > 100 µM |  | > 100 µM |  | > 100 µM |  | > 100 µM |  | > 100 µM |  | > 100 µM |
| CCCOc1ccc(/C=N/Nc2cc(C)nc3ccc(Cl)cc23)cc1 | 1.72 µM | 3.35 µM | 1.8 µM | 3.49 µM | 1.48 µM | 3.13 µM | 1.8 µM | 3.35 µM | 1.69 µM | 3.35 µM | 2.13 µM | 3.7 µM | 2.24 µM | 4.19 µM | 1.54 µM | 2.88 µM | 2.05 µM | 3.55 µM | 1.76 µM | 3.24 µM |
| N#Cc1ccc(C(C2C(=O)NC(=O)NC2=O)C2C(=O)NC(=O)NC2=O)cc1 |  | > 100 µM |  | > 100 µM |  | > 100 µM |  | > 100 µM |  | > 100 µM |  | > 100 µM |  | > 100 µM |  | > 100 µM |  | > 100 µM |  | > 100 µM |
| CCOC(=O)/C(=C/c1ccccc1Br)P(=O)(OCC)OCC |  | 10.7 µM |  | 13.9 µM |  | 2 µM |  | 4.52 µM |  | 6.89 µM |  | 5.46 µM |  | 10.5 µM |  | 3.51 µM |  | 3.18 µM |  | 3.29 µM |
| CC(C)(CN1CCCCC1)C(=O)CC(SCCN)c1ccc(Cl)cc1 (stereo not given) |  | 10.2 µM |  | 5.07 µM |  | > 100 µM |  | 5.23 µM |  | 10.1 µM |  | 3.96 µM |  | 9.36 µM |  | 3.25 µM |  | 11.7 µM |  | 3.56 µM |
| CC(=O)SC(SC(C)=O)SC(C)=O |  | > 100 µM |  | > 100 µM |  | > 100 µM |  | > 100 µM |  | > 100 µM |  | > 100 µM |  | > 100 µM |  | > 100 µM |  | > 100 µM |  | > 100 µM |
| FC(F)(F)c1cc(-c2ncn(/C=C\c3nnco3)n2)cc(C(F)(F)F)c1 | 0.0586 µM | > 42.3 µM | 0.12 µM | 48.2 µM | 0.06 µM | > 42.2 µM | 0.346 µM | > 32.7 µM | 0.0383 µM | 23.6 µM | 0.06 µM | 1.42 µM | 0.0462 µM | 10.1 µM | 0.165 µM | 2.74 µM | 0.0402 µM | 15.6 µM | 0.189 µM | 6.76 µM |
| C=C1c2[nH]c3ccccc3c2CC(C(=O)O)N1C(O)c1ccc(S(=O)(=O)O)cc1 (stereo not given) |  | > 100 µM |  | > 100 µM |  | > 100 µM |  | > 100 µM |  | > 100 µM |  | > 100 µM |  | > 100 µM |  | > 100 µM |  | > 100 µM |  | > 100 µM |
